Counter-ions that a name gives are not always drawn.

In US7687491B2, “Heterocyclic compound” (Daiichi Sankyo Company, Limited, priority 2005, dated 2010) one finds inhibition in vivo data, which are given here for 12 compounds.

This assay concerns host-versus-graft reaction (HvGR) in the rat. Nature of the assay: Inhibitory activity against host-versus-graft reaction (HvGR) in the rat (popliteal lymph node weight). The following applies: po, 1 mg/kg orally once daily for 4 successive days, Lewis rats injected with WKAH/Hkm spleen cells, weight of popliteal lymph nodes vs control group, read-out: Inhibition Rate (%, 1 mg/kg of administration). The class given is in vivo. From the text:
Determination of Inhibitory Activities of the Compound Against Host-Versus-graft Reaction (HvGR) in the Rat
(1) Two strains of rats [Lewis rats (male, 6 weeks of age, Charles River Japan Inc.) and WKAH/Hkm rats (male, 7 weeks of age, Japan SLC Inc.)] were used. Five rats (host) per group were used.
Spleen cells were isolated from the spleens of WKAH/Hkm rats or Lewis rats and floated in RPMI1640 medium (Life Technologies Inc.) at a concentration of 1×10^8 cells/ml. A 0.1-ml aliquot of the medium containing the free-floating spleen cells (1×10^7 cells) of WKAH/Hkm rats or Lewis rats was then intradermally injected into the bilateral foot pads of the hindlimbs of both sides of Lewis rats.
(3) Administration of Test Compound
The test compound was suspended in 0.5% tragacantha solution. The suspended solution of a compound of the present invention (5 ml/kg of body weight of the rat) was orally administered to rats of the drug-treated group (the Lewis rats in which spleen cells of WKAH/Hkm rats were injected and the test compound was administered) once daily for 4 successive days starting on the day of the spleen cell injection. Furthermore, tragacantha solution (0.5%) instead of the test substance was orally administered to rats in the “same strain group” (Lewis rats injected with spleen cells of Lewis rats) and the control group (Lewis rats injected with spleen cells of WKAH/Hkm rats and not treated with the test compound).
(4) Determination of Inhibitory Activity Against HvGR
The average weight of the popliteal lymph nodes of the same strain rats was subtracted from the individual weights of the popliteal lymph nodes of individual rats (“weight of the popliteal lymph nodes after HvGR-induction”). The inhibitory activity of a compound was calculated from the “weight of the popliteal lymph nodes after HvGR induction” of individual rats in the drug-treated group versus the average “weight of the popliteal lymph nodes after HvGR induction” in the control group.

As to `CCc1cc(CN2CC(C(=O)O)C2)sc1-c1noc(-c2ccc(Oc3ccccc3F)cc2)n1` [Example 10, 1-[(4-Ethyl-5-{5-[4-(2-fluorophenoxy)phenyl]-1,2,4-oxadiazol-3-yl}-2-thienyl)methyl]azetidine-3-carboxylic acid 1/2 oxalate], the inhibition in vivo at 1 mg/kg came to 61.8%.

`Cc1cc(CN2CC(C(=O)O)C2)sc1-c1noc(-c2ccc(Oc3ccccc3)c(F)c2)n1` [Example 11, 1-({5-[5-(3-Fluoro-4-phenoxyphenyl)-1,2,4-oxadiazol-3-yl]-4-methyl-2-thienyl}methyl)azetidine-3-carboxylic acid]: the inhibition in vivo at 1 mg/kg was determined as 51.6%.

As for `Cc1cc(CN2CC(C(=O)O)C2)sc1-c1noc(-c2ccc(Oc3ccccc3)cc2)n1` [Example 12, 1-({4-Methyl-5-[5-(4-phenoxyphenyl)-1,2,4-oxadiazol-3-yl]-2-thienyl}methyl)azetidine-3-carboxylic acid], the inhibition in vivo at 1 mg/kg is 55.4%.

For the compound `CCc1cc(CN2CC(C(=O)O)C2)sc1-c1noc(-c2ccc(Oc3ccccc3)cc2)n1` [Example 13, 1-({4-Ethyl-5-[5-(4-phenoxyphenyl)-1,2,4-oxadiazol-3-yl]-2-thienyl}methyl)azetidine-3-carboxylic acid], the inhibition in vivo at 1 mg/kg worked out at 61.3%.

In the case of `CCc1cc(CN2CC(C(=O)O)C2)sc1-c1noc(-c2ccc(Oc3ccccc3)c(F)c2)n1` [Example 14, 1-({4-Ethyl-5-[5-(3-fluoro-4-phenoxyphenyl)-1,2,4-oxadiazol-3-yl]-2-thienyl}methyl)azetidine-3-carboxylic acid], the inhibition in vivo at 1 mg/kg stood at 65.6%.

In the case of `CCc1cc(CN2CC(C(=O)O)C2)sc1-c1noc(-c2ccc(Oc3cccc(F)c3)cc2)n1` [Example 17, 1-[(4-Ethyl-5-{5-[4-(3-fluorophenoxy)phenyl]-1,2,4-oxadiazol-3-yl}-2-thienyl)methyl]azetidine-3-carboxylic acid], the inhibition in vivo at 1 mg/kg came to 65%.

With `CC(C)Cc1ccc(-c2nc(-c3ccc(CN4CC(C(=O)O)C4)nc3)no2)cc1Cl` [Example 26, 1-({5-[5-(3-Chloro-4-isobutylphenyl)-1,2,4-oxadiazol-3-yl]pyridin-2-yl}methyl)azetidine-3-carboxylic acid], the inhibition in vivo at 1 mg/kg was 80%.

On to `Cc1cc(-c2nc(-c3ccc(CN4CC(C(=O)O)C4)nc3C)no2)ccc1CC(C)C` [Example 27, 1-({5-[5-(4-Isobutyl-3-methylphenyl)-1,2,4-oxadiazol-3-yl]-6-methylpyridin-2-yl}methyl)azetidine-3-carboxylic acid 1/2 oxalate], for which the inhibition in vivo at 1 mg/kg is 80.6%.

Regarding `Cc1cc(-c2nc(-c3ccc(CN4CC(C(=O)O)C4)nc3)no2)ccc1CC(C)C` [Example 28, 1-({5-[5-(4-Isobutyl-3-methylphenyl)-1,2,4-oxadiazol-3-yl]pyridin-2-yl}methyl)azetidine-3-carboxylic acid 1/2 oxalate], the inhibition in vivo at 1 mg/kg came to 77.5%.

For `CCc1nc(CN2CC(C(=O)O)C2)ccc1-c1noc(-c2ccc(CC(C)C)c(C)c2)n1` [Example 29, 1-({6-Ethyl-5-[5-(4-isobutyl-3-methylphenyl)-1,2,4-oxadiazol-3-yl]pyridin-2-yl}methyl)azetidine-3-carboxylic acid], the inhibition in vivo at 1 mg/kg worked out at 83.5%.

On to `CC[C@H](C)Oc1ccc(-c2nc(-c3ccc(CN4CC(C(=O)O)C4)cc3)no2)cc1` [Reference Compound 1, reference compound], for which the inhibition in vivo at 1 mg/kg is -15.5%.

With `O=C(O)C1CN(Cc2ccc(-c3noc(-c4ccc(OC5CCC5)cc4)n3)cc2)C1` [Reference Compound 2, reference compound], the inhibition in vivo at 1 mg/kg was -19%.
